Measurements from patent EP4725957A1, “GROUP OF CYCLIC ALKALINE LIPOPEPTIDE COMPOUNDS, AND PREPARATION METHOD THEREFOR AND USE THEREOF” (Institute of Medicinal Biotechnology, Chinese Academy of …, priority 2023, dated 2024).
Converted amounts (≈) assume the structure as drawn. Numbered stars: 1 amine (or outer) side, 2 acyl side, 3 side chain; on linkers, the order of the positions; unused ones are H or OH. Bridge positions count the residues as written; N and C are the ends. Square brackets hold non-standard residues; d marks the D form. Peptide text beside a SMILES is read from it. * marks the point of attachment. X2 = O=C([C@H](CNCS(=O)(=O)O)N[*:1])[*:2]; Heptanoyl(6-Me) = CC(C)CCCCC(=O)*; dOrn = NCCC[C@@H](N)C(=O)O; X1 = CC[C@H](C)CCCCC(=O)*; dDab = NCC[C@@H](N)C(=O)O; Octanoyl = CCCCCCCC(=O)*; Dab = NCC[C@H](N)C(=O)O; Dap = NC[C@H](N)C(=O)O

Legend:
Type in all cases: cell-based
[1] = test system: Acinetobacter baumannii ABA19-1; conditions: ABA19-1
Method in brief: (§1)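 Broth microdilution per CLSI in Mueller-Hinton broth. Compounds were tested at final concentrations of 64 to 0.03 mg/L (two-fold steps) against an inoculum of (2-4) × 10^5 CFU/mL, with incubation at 35-37°C for 16-20 h to give the MIC.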

[2] = test system: Acinetobacter baumannii NCTC 13304 (OXA-27); conditions: NCTC 13304
Method in brief: as §1

[3] = test system: Escherichia coli ATCC BAA-2340 (KPC); conditions: ATCC BAA-2340
Method in brief: as §1

[4] = test system: Escherichia coli ATCC BAA-2523; conditions: ATCC BAA-2523
Method in brief: as §1

[5] = test system: Klebsiella pneumoniae ATCC BAA-1705 (KPC); conditions: ATCC BAA-1705
Method in brief: as §1

[6] = test system: Klebsiella pneumoniae KPN+19-15; conditions: KPN+19-15
Method in brief: as §1

[7] = test system: Pseudomonas aeruginosa ATCC 27853; conditions: ATCC 27853
Method in brief: as §1

[8] = test system: Pseudomonas aeruginosa PAE19-3; conditions: PAE19-3
Method in brief: as §1

[9] = Nephrotoxicity assay: in vitro cytotoxicity of HK-2 cells by CCK-8 assay; conditions: human, HK-2 cells (human renal), 72 h incubation with drug-containing medium
Method in brief: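 HK-2 human renal cells in RPMI-1640 with 10% FBS were exposed to compounds at final 12.5–500 µg/mL for 72 h, then CCK-8 for 3 h and OD450 read. Viability was normalised to drug-free wells; IC50 came from logarithmic regression over three repeats, with polymyxin B as positive drug.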

Structure (SMILES) | MIC [1] | MIC [2] | MIC [3] | MIC [4] | MIC [5] | MIC [6] | MIC [7] | MIC [8] | IC50 at 72 h [9]
CCCCCCCC(=O)N[C@@H](CCN)C(=O)N[C@H](C(=O)N[C@H](CCCN)C(=O)N[C@H]1CCNC(=O)[C@H]([C@@H](C)O)NC(=O)[C@H](CCN)NC(=O)[C@H](CCN)NC(=O)[C@H]([C@@H](C)O)NC(=O)[C@@H](Cc2ccccc2)NC(=O)[C@H](CCN)NC1=O)[C@@H](C)O [Compound 23, Octanoyl-Dab-Thr-D-Orn-ring(4-10)[Dab-Dab-D-Phe-Thr-Dab-Dab-Thr]] (Octanoyl-[Dab]T[dOrn][Dab][Dab][dF]T[Dab][Dab]T; lactam 4-C) | 0.125 µg/mL (≈ 0.105 µM) | 0.06 µg/mL (≈ 0.0504 µM) | ≤0.03 µg/mL | ≤0.03 µg/mL | 0.06 µg/mL (≈ 0.0504 µM) | 0.125 µg/mL (≈ 0.105 µM) | 0.25 µg/mL (≈ 0.21 µM) | 1 µg/mL (≈ 0.839 µM) | > 500 µg/mL
CC(C)CCCCC(=O)N[C@@H](CCN)C(=O)N[C@H](C(=O)N[C@@H](CNCS(=O)(=O)O)C(=O)N[C@H]1CCNC(=O)[C@H]([C@@H](C)O)NC(=O)[C@H](CCN)NC(=O)[C@H](CCN)NC(=O)[C@H]([C@@H](C)O)NC(=O)[C@@H](Cc2ccccc2)NC(=O)[C@H](CCN)NC1=O)[C@@H](C)O [Compound 112, 6-methylheptanoyl-Dab-Thr-Dap(CH2SO3H)-ring(4-10)[Dab-Dab-D-Phe-Thr-Dab-Dab-Thr]] ({Heptanoyl(6-Me)}-[Dab]T[X2][Dab][Dab][dF]T[Dab][Dab]T; lactam 4-C) | 0.06 µg/mL (≈ 0.0477 µM) | 0.06 µg/mL (≈ 0.0477 µM) | 0.03 µg/mL (≈ 0.0239 µM) | 0.03 µg/mL (≈ 0.0239 µM) | 0.125 µg/mL (≈ 0.0994 µM) | 0.125 µg/mL (≈ 0.0994 µM) | 0.25 µg/mL (≈ 0.199 µM) | 0.25 µg/mL (≈ 0.199 µM) | > 500 µg/mL
CCCCCCCC(=O)N[C@@H](CCN)C(=O)N[C@H](C(=O)N[C@H](CO)C(=O)N[C@H]1CCNC(=O)[C@H]([C@@H](C)O)NC(=O)[C@H](CCN)NC(=O)[C@H](CN)NC(=O)[C@H]([C@@H](C)O)NC(=O)[C@@H](Cc2ccccc2)NC(=O)[C@H](CCN)NC1=O)[C@@H](C)O [Compound 73, Octanoyl-Dab-Thr-D-Ser-ring(4-10)[Dab-Dab-D-Phe-Thr-Dap-Dab-Thr]] (Octanoyl-[Dab]T[dS][Dab][Dab][dF]T[Dap][Dab]T; lactam 4-C) | 0.06 µg/mL (≈ 0.0522 µM) | ≤0.03 µg/mL | ≤0.03 µg/mL | ≤0.03 µg/mL | 0.25 µg/mL (≈ 0.217 µM) | 0.5 µg/mL (≈ 0.435 µM) | >64 µg/mL | 64 µg/mL (≈ 55.6 µM) | > 500 µg/mL
CC(C)CCCCC(=O)N[C@@H](CCN)C(=O)N[C@H](C(=O)N[C@@H](CCN)C(=O)N[C@H]1CCNC(=O)[C@H]([C@@H](C)O)NC(=O)[C@H](CCN)NC(=O)[C@H](CCN)NC(=O)[C@H]([C@@H](C)O)NC(=O)[C@@H](Cc2ccccc2)NC(=O)[C@H](CCN)NC1=O)[C@@H](C)O [Compound 17, 6-methylheptanoyl-Dab-Thr-Dab-ring(4-10)[Dab-Dab-D-Phe-Thr-Dab-Dab-Thr]] ({Heptanoyl(6-Me)}-[Dab]T[Dab][Dab][Dab][dF]T[Dab][Dab]T; lactam 4-C) | 0.5 µg/mL (≈ 0.425 µM) | 0.25 µg/mL (≈ 0.212 µM) | ≤0.03 µg/mL | 0.06 µg/mL (≈ 0.051 µM) | 0.5 µg/mL (≈ 0.425 µM) | ≤0.03 µg/mL | 0.5 µg/mL (≈ 0.425 µM) | 0.5 µg/mL (≈ 0.425 µM) | > 500 µg/mL
CCCCCCCC(=O)N[C@@H](CCN)C(=O)N[C@H](C(=O)N[C@H](CO)C(=O)N[C@H]1CCNC(=O)[C@H]([C@@H](C)O)NC(=O)[C@H](CCN)NC(=O)[C@H](CCN)NC(=O)[C@H]([C@@H](C)O)NC(=O)[C@@H](Cc2ccccc2)NC(=O)[C@H](CN)NC1=O)[C@@H](C)O [Compound 63, Octanoyl-Dab-Thr-D-Ser-ring(4-10)[Dab-Dap-D-Phe-Thr-Dab-Dab-Thr]] (Octanoyl-[Dab]T[dS][Dab][Dap][dF]T[Dab][Dab]T; lactam 4-C) | 0.25 µg/mL (≈ 0.217 µM) | 0.25 µg/mL (≈ 0.217 µM) | 0.125 µg/mL (≈ 0.109 µM) | 0.125 µg/mL (≈ 0.109 µM) | 0.25 µg/mL (≈ 0.217 µM) | 0.5 µg/mL (≈ 0.435 µM) | 64 µg/mL (≈ 55.6 µM) | 4 µg/mL (≈ 3.48 µM) | > 500 µg/mL
CC[C@H](C)CCCCC(=O)N[C@@H](CN)C(=O)N[C@H](C(=O)N[C@H](CCN)C(=O)N[C@H]1CCNC(=O)[C@H]([C@@H](C)O)NC(=O)[C@H](CCN)NC(=O)[C@H](CCN)NC(=O)[C@H](CC(C)C)NC(=O)[C@@H](CC(C)C)NC(=O)[C@H](CCN)NC1=O)[C@@H](C)O [Compound 96, (S)-6-methyloctanoyl-Dap-Thr-D-Dab-ring(4-10)[Dab-Dab-D-Leu-Leu-Dab-Dab-Thr]] (X1-[Dap]T[dDab][Dab][Dab][dL]L[Dab][Dab]T; lactam 4-C) | 0.03 µg/mL (≈ 0.026 µM) | 0.03 µg/mL (≈ 0.026 µM) | 0.03 µg/mL (≈ 0.026 µM) | 0.03 µg/mL (≈ 0.026 µM) | 0.03 µg/mL (≈ 0.026 µM) | 0.03 µg/mL (≈ 0.026 µM) | 0.5 µg/mL (≈ 0.433 µM) | 0.5 µg/mL (≈ 0.433 µM) | 207 ± 13.2 µg/mL (≈ 179 µM)
